ChEMBL document CHEMBL1671694, “OXA-24 carbapenemase gene flanked by XerC/XerD-like recombination sites in different plasmids from different Acinetobacter species isolated during a nosocomial outbreak” (2010)
In brackets after ≈: the same amount, converted by molar mass.

Experiments:
Acinetobacter baylyi [1] = test: Antimicrobial activity against Acinetobacter baylyi ADP1 by microdilution method; format: functional
Acinetobacter baylyi [2] = test: Antimicrobial activity against Acinetobacter baylyi ADP1 harboring pMMCU1 plasmid expressing bla-OXA-24 gene by microdilution method; format: functional

C[C@@H](O)[C@H]1C(=O)N2C(C(=O)O)=C(SCCNC=N)C[C@H]12 [IMIPENEM ANHYDROUS]
MIC (Acinetobacter baylyi [1]): 0.094 µg/mL (≈ 0.314 µM) | MIC (Acinetobacter baylyi [2]): > 32 µg/mL

C[C@@H](O)[C@H]1C(=O)N2C(C(=O)O)=C(S[C@@H]3CN[C@H](C(=O)N(C)C)C3)[C@H](C)[C@H]12 [MEROPENEM]
MIC (Acinetobacter baylyi [1]): 0.25 µg/mL (≈ 0.652 µM) | MIC (Acinetobacter baylyi [2]): > 32 µg/mL
